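Assay format: 96-well plates, 48-hour exposure. The concentration for 50% growth inhibition is given as GI50. The concentration for full growth arrest is given as TGI.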 Where a SMILES comes first, the peptide text is derived from it. [ ]: non-standard residue; d: D form. The star is where a group is joined. ξ: configuration not given here. Propanoyl(3-(4-MeO-Ph)) = COc1ccc(CCC(=O)*)cc1; Thr(3ξ) = CC(O)[C@H](N)C(=O)O; dNMeL = CN[C@H](CC(C)C)C(=O)O; OBn = c1ccc(CO*)cc1; ξLac = CC(O)C(=O)O
Assays:
Test in all cases: NCI tumour cell line growth inhibition, 48 h
[1] = test system: A498 renal
[2] = test system: IGROV1 ovarian
[3] = test system: MALME-3M melanoma
[4] = test system: NCI-H522 lung
[5] = test system: OVCAR-3 ovarian
[6] = test system: OVCAR-5 ovarian
[7] = test system: SF-539 CNS
[8] = test system: SK-OV-3 ovarian
[9] = test system: UACC-62 melanoma
[10] = test system: OVCAR-4 ovarian

Row | Compound | TGI [1] [µM] | TGI [2] [µM] | TGI [3] [µM] | TGI [4] [µM] | TGI [5] [µM] | TGI [6] [µM] | TGI [7] [µM] | TGI [8] [µM] | TGI [9] [µM] | TGI [10] [µM] | GI50 [5] [nM] | GI50 [9] [nM]
1 | Nc1nc(N)c2nnn(C[C@H]3CC[C@@H](CO)C3)c2n1 | > 100 | > 100 | > 100 | > 100 | > 100 | > 100 | > 100 | > 100 | > 100 |  |  | 
2 | CC(=N/NC(=S)N1CCCCC1)/C(C)=N\NC(=S)N1CCCCC1 | 2.86 | 3.13 | 3.61 | 4.74 | 3.39 | 3.82 | 5.58 | 3.32 |  | 3.46 |  | 
3 | CCOP(=O)(OCC)/C(C#N)=C/c1cccn1N(C)C | > 100 | > 100 | > 100 | > 100 | > 100 | > 100 | > 100 | > 100 | > 100 | > 100 |  | 
4 | Nc1nc(N)c2nc(-c3ccco3)cnc2n1 | > 100 | > 100 | > 100 | > 100 | > 100 | > 100 | > 100 | > 100 | > 100 |  |  | 
5 | Cc1ccc2cccc3c2c1CC1(C3=O)S(=O)(=O)OCCOS1(=O)=O | > 100 | > 100 | > 100 | > 100 | > 100 | > 100 | > 100 | > 100 | > 100 | > 100 |  | 
6 | CSc1nc(O)c(/C=C2\C=Nc3ccccc32)[nH]1 | > 100 | > 100 | > 100 |  | > 100 | > 100 | > 100 | > 100 | > 100 | > 100 |  | 
7 | O=C(/C=C/c1cccs1)c1cccc(C(=O)/C=C/c2cccs2)n1 | > 100 | > 100 | > 100 | > 100 | > 100 | > 100 | 21.5 | > 100 | > 100 | > 100 |  | 
8 | CCCC#CC(O)(C(=O)OC1CCN(C)CC1)C1CCCCC1 (stereo unspecified) | > 100 | > 100 | > 100 |  | > 100 | > 100 | > 100 | > 100 | > 100 | > 100 |  | 
9 | O=C1OC(C2OC(=O)c3cc(O)c(O)c(O)c3-c3c(O)c(O)c4oc(=O)c5c(c(O)c(O)c6oc(=O)c3c4c65)-c3c(cc(O)c(O)c3O)C(=O)OCC2O)C2OC(=O)c3c(c(O)c(O)c(O)c3[C@H]2O)-c2c1cc(O)c(O)c2O (stereo partly specified) | > 100 | > 100 | > 100 | 44.5 | 67.5 | 47.3 |  | > 100 | 56.5 | 46 |  | 
10 | COc1ccc(C(C#N)NCCCCCCNC(C#N)c2ccc(OC)cc2)cc1 (stereo unspecified) | > 100 | > 100 | > 100 | > 100 | > 100 | > 100 | > 100 | > 100 | > 100 | > 100 |  | 
11 | CC(=O)O[C@H]1C(=O)[C@@]2(C)[C@H]([C@H](OC(=O)c3ccccc3)[C@]3(O)C[C@H](OC(=O)[C@H](O)[C@@H](NC(=O)CC(C)C)c4ccccc4)C(C)=C1C3(C)C)[C@]1(OC(C)=O)CO[C@@H]1C[C@@H]2O | > 10 | > 10 | > 10 | 0.0135 |  | > 10 | 0.196 |  | > 10 | > 10 |  | 
12 | Cc1ccc([N+](=O)[O-])cc1S(=O)(=O)Nc1ccc(C2=NNC(c3cccs3)C2)cc1 (stereo unspecified) | 93.1 | > 100 | > 100 | > 100 | 43.2 | > 100 | > 100 | 89.4 | 34.1 | > 100 |  | 
13 | NCCCc1c(-c2ccccc2)nc(N)[nH]c1=O | > 100 | > 100 | > 100 | > 100 | > 100 | > 100 | > 100 | > 100 | > 100 | > 100 |  | 
14 | COc1ccc(CCC(=O)OC(C)[C@H](NC(=O)[C@@H](CC(C)C)N(C)C(=O)[C@@H]2CCCN2C(=O)C(C)O)C(=O)OCc2ccccc2)cc1 (stereo partly specified) (H-[ξLac]P[dNMeL][Thr(3ξ)](Propanoyl(3-(4-MeO-Ph)))-OBn) | > 100 | 91.9 | 45.4 | 50.4 | 73.4 | > 100 | 46.2 | > 100 | 37.9 | > 100 |  | 
15 | Cc1ccc(/C=N/Nc2nncc3ccccc23)s1 | > 100 | > 100 | > 100 | > 100 | > 100 | > 100 | > 100 | > 100 | > 100 | > 93.1 |  | 
16 | CC(=O)O[C@H]1CC[C@@]2(C)C(=CC[C@@H]3[C@@H]2CC[C@]2(C)c4c(cc(C#N)c(=N)n4C(C)=O)C[C@@H]32)C1 | 88.7 | 53.3 | 31.8 | 35.9 | 34.4 | 74.7 |  | 34.5 | 29.7 | 39.4 |  | 
17 | O=C1CC(c2ccc[nH]2)=NN1c1ccccc1 | > 100 |  | > 100 | > 100 | > 100 | > 100 | > 100 | > 100 | > 100 | > 100 |  | 
18 | O=c1[nH]c2ccc(CC(=S)N3CCN(c4ccccc4)CC3)cc2o1 | > 100 | > 100 | > 100 | > 100 | > 100 | > 100 | > 100 | > 100 | > 100 | > 100 |  | 
19 | CCn1c(-c2ccc(C)cc2)cs/c1=N\C(P(=O)(O)O)P(=O)(O)O | > 100 | > 100 | > 100 | > 100 | > 100 | > 100 | > 100 | > 100 | > 100 |  |  | 
20 | CC1(C)N=C(/C=N/O)C(C)(C)N1O | > 100 | > 100 | > 100 | > 100 | > 100 | > 100 | > 100 | > 100 | > 100 | > 100 |  | 
21 | C=Cc1cc2c(cc1O)CC[C@@H]1[C@@H]2CC[C@]2(C)[C@@H](O)CC[C@@H]12 | 39.1 | 19.3 | 10.4 | 20.6 | 8.74 | 41.3 | 5.53 | 28.3 | 8.65 | 26.9 | 2570 | 2530
